Blank lines part the entries; values can stand above or below the molecule they belong to.
How the values were obtained:
[1] = molecular target: T1, aFGF (Homo sapiens, UniProt P05230); experiment: Thermal denaturation (Tm) of aFGF by circular dichroism; format: biochemical; settings: for Tm of aFGF (maximum Tm induced by ligand), circular dichroism: PBS pH 7.2, excess ligand (1-3X by weight; 120 mM sodium sulfate, 10 mM tetrapolyphosphate)
T1 construct: The recombinant derived, 140 amino add form is the preferred form of aFGF; N-terminal methionine (MetHaFGF); made in house; host or cells: microbial cells (preferred embodiment)
T1 sequence (P05230 16-155 limits assumed): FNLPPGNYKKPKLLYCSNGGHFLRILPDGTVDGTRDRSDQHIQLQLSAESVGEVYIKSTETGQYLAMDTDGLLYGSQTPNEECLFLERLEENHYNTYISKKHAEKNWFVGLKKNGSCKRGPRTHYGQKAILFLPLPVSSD
Protocol: Circular Dichroism (CD) spectra are measured with an AVIV 62 DS spectropolarimeter. Samples of aFGF at about 100 μg/ml in a PBS buffer (6 mM sodium phosphate, 120 mM NaCl, pH 7.2) containing various ligands are placed into 1 mm pathlength cells and the cell temperature is controlled by circulating a water/ethylene glycol mixture through the cell holder. Thermal denaturation is carded out under computer control by increasing the temperature of the water bath in 2° C. increments, followed by a two-minute equilibration period at each temperature to allow the sample to reach thermal equilibrium. Reproducibility of the midpoint of these temperature melting curves (Tm) is ±2° C.
The maximum Tm values induced by 12 different ligands as determined by circular dichroism measurements at 228 nm are summarized in the first column of Table II. All of these ligands stabilize aFGF by 15°-25° C. in a manner similar to that originally observed with heparin. […] Furthermore, sulfate unions are found near analogous residues in the crystal structure of basic FGF, Eriksson et al., Proc. Natl. Acad. Sd. USA 88:3441-3445 (1991); Zhang et al., Proc. Natl. Acad. Sci. USA 88:3446-3450 (1991). Consequently, it seemed important to examine the ability of these ligands to stabilize aFGF during thermal denaturation as monitored by both fluorescence and circular dichroism. The Tm value of aFGF increased from 27° C. to 43° C. (fluorescence)and 45° C. to 51° C. (CD) when a 100 molar excess (3X by weight) of (IrCl6)^-3 was present. Similarly, sulfate union (120 mM) produced a species that was even more dramatically stabilized, melting at 57° C. (CD).
^(a) Thermal melting temperatures were measured by circular dichroism
Samples contained […] aFGF in PBS buffer pH 7.2 with excess ligand
(1-3× by weight except for 120 mM sodium sulfate and 10 mM

[2] = molecular target: T1, aFGF; experiment: Thermal denaturation (Tm) of aFGF by fluorescence spectroscopy; format: biochemical; settings: PBS pH 7.2
Protocol: Fluorescence spectra are obtained with a Spex Fluorolog-2 spectrofiuorometer using a 1 mm pathlength cuvette. Band passes from 1-2 nm are employed with sample absorptivities maintained below 0.1 at 280 nm. The temperature is controlled either manually or automatically as described above. Reproducibility of thermal denaturation temperatures (Tm) is ± 2° C.
To more directly ascertain the effect of heparin on aFGF stability, the temperature-induced denaturation of aFGF as a function of heparin concentration was monitored by fluorescence spectroscopy. Fluorescence spectra were obtained with a Spex Fluorolog-2 spectrofiuorometer using a 1 mm pathlength cuvette. Band passes from 1-2 nm were employed with sample absorptivities maintained below 0.1 at 280 nm. The temperature was controlled either manually or automatically as described above. Reproducibility of thermal denaturation temperatures (Tm) was ±2° C. […] Experiments were carried out at 100 μg/ml protein (6.3 μM) in a PBS buffer at pH 7.2. Curve drawn through data points for clarity only.
Studies of the stabilization of aFGF by heparin are difficult to interpret because of the inherent heterogeneity of heparin preparations, Lane and Lindahl, Eds. Heparin, Chemical and Biological Properties, Clinical Applications, Edward Arnold, London (1989); Jackson, et al., Physiol. Rev. 71: 481-539 (1991). In order to better understand the polyanionic stabilization of aFGF, a series of well-defined fragments of heparin were examined for their ability to stabilize aFGF against thermal denaturation. These enzymatically prepared and purified fragments varied in size from a disaccharide to a decasaccharide. Each fragment was incubated with aFGF at a 1:1 weight ratio in a PBS buffer. The sample was then stressed by temperature and structural changes in aFGF were monitored by both circular dichroism and fluorescence spectroscopy. […] All samples contained 100 μg/ml aFGF (6.3 μM)in a PBS buffer (pH 7.2) with 100 μg/ml of each heparin fragment.
Since these fragments of heparin have a well-defined molecular weight, the molar ratio of aFGF to ligand during these thermal denaturation experiments can be calculated. The Tm of aFGF as a function of the molar concentration of the hexasaccharide was measured by fluorescence spectroscopy. Fluorescence spectra were obtained with a Spex Fluorolog-2 spectrofiuorometer using a 1mm pathlength cuvette. Band passes from 1-2 nm were employed with sample absorptivities maintained below 0.1 at 280 nm. The temperature was controlled either manually or automatically as described above. Reproducibility of thermal denaturation temperatures (Tm) was ±2° C.
Analogous to the heparin experiments illustrated in Example 1 (FIG. 3), aFGF thermal stability was monitored by fluorescence spectroscopy as a function of concentration for several other of the polyanions. […] All samples contained 100 μg/ml of aFGF (6.3 μM) in a PBS buffer at pH 7.2.

[3] = test system: BALB/c 3T3 A31 fibroblasts; experiment: Fibroblast mitogenic assay ([3H]-thymidine incorporation into DNA); format: cell-based; design: Bioactivity (mitogenic activity of aFGF in the presence of ligand): unit not given here; settings: complete absence of heparin; < = response did not plateau; * = cell death observed
Protocol: Biological activity of the formulation of the instant invention is determined by a modification of the fibroblast mitogenic assay as described by Linemeyer et al. in European Patent Application, Publication No. 259,953. BALB/c 3T3 A31 fibroblasts (American Type Culture Collection) are plated at about 3×10^5 cells per 32 cm^2 wells in culture media containing about 10% heat-inactivated calf serum and incubated in about 7% CO2 (pH 7.35±0.05). The cells become fully quiescent by replacing the media with serum free media at about 6, about 24 hours and about 48 hours later. At about 53 hours after plating samples of the various formulations are added and about 0.12 μg of dexamethasone are added. At about 65 hours each well is supplemented with about 0.4 μCi of [methyl-^3 H]-thymidine (20 Ci/mmole, Dupont) and 0.6 μg of unlabeled thymidine (Sigma), and at 80 hours the cells are processed for determination of radiolabel incorporation into DNA. Each dose-response point is the average of at least quadruplicate determinations. Other cell types such vascular endothelial cells and corneal endothelial cells can be employed to determine in vitro mitogenicity. The procedures are described in detail by Thomas et al., Proc. Natl. Acad. Sci. USA 82:6409-6431 (1985).
^(d) Mitogenic activity of aFGF was measured in the presence of ligan
indicated in the complete absence of heparin.
*indicates cell death observed during assay.
Biological activity of the formulation of the instant invention was determined by a modification of the fibroblast mitogenic assay as described by Linemeyer et al. in European Patent Application, Publication No. 259,953. BALB/c 3T3 A31 fibroblasts (American Type Culture Collection) were plated at 3×10^5 cells per 32 cm^2 well in culture media containing about 10% heat-inactivated calf serum and incubated in 7% CO2 (pH 7.35±0.05). The cells become fully quiescent by replacing the media with serum free media at 6, 24 hours and 48 hours later. At 53 hours after plating samples of the various formulations were added and 0.12 μg of dexamethasone was added, at 65 hours each well was supplemented with 0.4 μCi of [methyl-^3 H]-thymidine (20 Ci/mmole, Dupont) and 0.6 μg of unlabeled thymidine (Sigma), and at 80 hours the cells were processed for determination of radiolabel incorporation into DNA. Each dose-response point is the average of at least quadruplicate determinations. Other cell types such vascular endothelial cells and corneal endothelial cells can be employed to determine in vitro mitogenidty. The procedures are described in detail by Thomas et al., Proc. Natl. Acad. Sci. USA 82:6409-6431 (1985).

[4] = molecular target: T1, aFGF; experiment: Copper-catalyzed oxidation of aFGF thiol groups; format: biochemical; settings: ligand 3X by weight; sodium sulfate 120 mM, tetrapolyphosphate 10 mM
Protocol: Copper-catalyzed oxidation of aFGF is carried out in the following manner. Acidic FGF (about 80 μg/ml) is incubated in a 20 mM Tris, 0.15M potassium chloride, pH 8 solution containing about 20 μM cuptic chloride for varying periods of time at room temperature. The reaction was terminated by the addition of 100 mM EDTA in the same buffer. A solution of about 0.7 ml of 0.25M Tris (about pH 8) containing about 2 mM EDTA and about 7 M GuHC1 is then added followed by about 35 μl of 4 mg/ml of DTNB (Sigma). Samples were incubated for 30 minutes, filtered through a 0.22 micron filter and the optical density measured at about 412 nm to determine sulfhydryl content, Riddles et al., Meth. Enzymol. 9:49-60 (1983). Relative standard deviation of the obtained values during time course experiments is 12%.
Acidic FGF contains three free cysteine residues at positions […], 83 and 117 in the polypeptide chain. […] It has also been shown that the copper catalyzed oxidative formation of a disulfide bond in the wild-type aFGF inactivates the protein in an in vitro mitogenic assay, Ortega et al., J. Biol. Chem. 266:5842-5846 (1991). Therefore, it was of interest to determine the extent to which heparin can stabilize aFGF against inactivation by oxidation. […] Samples contained 80 μg/ml aFGF with (a) 3X heparin by weight, (b) 0.1X heparin by weight and (c) buffer alone. As heparin was introduced and its concentration increased, the rate of copper-catalyzed oxidation decreased. For example, after 20 minutes, greater than 95% of the cysteine residues of aFGF are protected from oxidation with 3X heparin. FIG. 4B illustrates the fraction of remaining reactive thiol groups after a 10-minute incubation with cupric chloride as a function of heparin concentration.
Some aggregation of aFGF occurs under the conditions of these experiments presumably due to at least partial intermolecular disulfide formation. Thus, these measurements could simply be a measurement of the loss of solubility induced by copper association with aFGF. Several experiments, however, argue against this possibility. First, previous work has shown that at dilute protein concentration, copper does indeed catalyze oxidation of thiol groups of aFGF, Ortega et al., J. Biol. Chem. 266:5842-5846 (199 1 ). Second, as a control experiment, the copper-catalyzed oxidation of aFGF was carded out in a buffer containing 6 M GuHCl. Under these denaturing conditions, nearly 100% of the thiol groups in solution were lost after 10 minutes without visible aggregation. […] Regardless of the precise mechanism, copper addition is a distinct mechanism of inactivation compared to thermal stress.
Similar protection against oxidation experiments were carried out with other negatively charged compounds with an excess of ligand (3X by weight except for sodium sulfate at 120 mM and tetrapolyphosphate at 10 mM) added to aFGF before copper catalyzed oxidation. As shown in the second column of Table 2, all of these agents at least partially protect the cysteine residues of aFGF from oxidation.
^(b) Percentage of aFGF thiols remaining in solution after 10 min
incubation with cupric chloride. Experimental conditions are described in
FIG. 10. All samples contained ligand at 3× (by weight) except
sodium sulfate (120 mM) and tetrapolyphosphate (10 mM).

[5] = Storage stability of aFGF formulations (protein mass and biological activity); settings: versus EDTA or EGTA
Source text: Stabilization of aFGF can be determined by several independent methods including turbidity measurements, spectroscopic techniques, maintenance of protein mass, mitogenic activity and copper catalyzed oxidation. Since acidic fibroblast growth factor is unstable at physiological temperatures (undergoing large structural changes, including aggregation, which results in a loss of mitogenic and wound healing activity), human aFGF stability can be monitored by evaluating the turbidity of the pharmaceutical composition by following the kinetics of temperature induced aggregation of unfolded protein.

Molecule: [Cl][Ir-3]([Cl])([Cl])([Cl])([Cl])[Cl] [(IrCl6)^-3, reference compound]
Tm of aFGF, circular dichroism ([1]; 3X ligand by weight): 51 °C
thermal melting temperature (Tm) of aFGF, fluorescence ([2]; 3X ligand by weight): 43 °C

Molecule: O=S(=O)([O-])[O-].[Na+].[Na+] [Sodium Sulfate, sodium sulfate]
Bioactivity (mitogenic activity of aFGF in the presence of ligand) [3]: 0
Cu Oxidation (% SH Lost in 10 Mins) [4]: 25%
Tm of aFGF (maximum Tm induced by ligand), circular dichroism [1]: 57 °C

Molecule: O=C(O)CC(O)(CC(=O)O)C(=O)O [citrate]
effectiveness of chelating agent in stabilizing the aFGF-stabilizer-HEC combination [5]: not as effective as EDTA or EGTA

Molecule: sulfated γ-cyclodextrin
Cu Oxidation (% SH Lost in 10 Mins) [4]: 5%
Tm of aFGF (maximum Tm induced by ligand), circular dichroism [1]: 70 °C

Further lines, with some results ahead:

Tm of aFGF (maximum Tm induced by ligand), circular dichroism [1]: 65 °C
Molecule: O=S(=O)(O)OC[C@H]1O[C@@](COS(=O)(=O)O)(O[C@H]2O[C@H](COS(=O)(=O)O)[C@@H](OS(=O)(=O)O)[C@H](OS(=O)(=O)O)[C@H]2OS(=O)(=O)O)[C@@H](OS(=O)(=O)O)[C@@H]1OS(=O)(=O)O [Sucrose octasulfate, sucrose octasulfate]
Bioactivity (mitogenic activity of aFGF in the presence of ligand) [3]: 2.5

effect of heparin fragment on Tm of aFGF ([2]; 1:1 weight ratio, fluorescence and circular dichroism): did not influence the Tm of aFGF
Molecule: O=C(O)C1=C[C@H](O)[C@@H](OS(=O)(=O)O)[C@H](O[C@H]2[C@H](O)[C@@H](NS(=O)(=O)O)[C@@H](O)O[C@@H]2COS(=O)(=O)O)O1 [disaccharide, Δ.orgate.Ap2S(1→4)-α-D-GlcNp2S6S]

effectiveness of chelating agent in stabilizing the aFGF-stabilizer-HEC combination [5]: not as effective as EDTA or EGTA
Molecule: N[C@@H](Cc1c[nH]cn1)C(=O)O [histidine]
